Assay results from BindingDB's records for patent US11834430 (Agency For Science, Technology and Research, 2023).

Molecular target: Protein-S-isoprenylcysteine O-methyltransferase (Homo sapiens, UniProt O60725)
Assay: ICMT Biochemical Assay
Protocol: An ICMT enzymatic assay was developed using Promega's Methyltransferase-GloTMreagents. In the assay, ICMT catalyzes the methylation of the N-Acetyl-S-farnesyl-L-cysteine by transferring a methyl group from SAM to the farnesylated cysteine and further converts the SAM to SAH. The methyltransferase activity is measured based on the amount of SAH produced from the reaction through the use of coupling enzymes that convert the SAH to ATP. […] A final concentration of 2.0 μM and 20 μM of SAM and peptide were added and further incubated for 90 minutes at room temperature before adding the MTase Glo and detection reagent. Reaction signals were detected using microplate readers on luminescent mode (Satire Tecan).

Chain of Protein-S-isoprenylcysteine O-methyltransferase (O60725 whole entry): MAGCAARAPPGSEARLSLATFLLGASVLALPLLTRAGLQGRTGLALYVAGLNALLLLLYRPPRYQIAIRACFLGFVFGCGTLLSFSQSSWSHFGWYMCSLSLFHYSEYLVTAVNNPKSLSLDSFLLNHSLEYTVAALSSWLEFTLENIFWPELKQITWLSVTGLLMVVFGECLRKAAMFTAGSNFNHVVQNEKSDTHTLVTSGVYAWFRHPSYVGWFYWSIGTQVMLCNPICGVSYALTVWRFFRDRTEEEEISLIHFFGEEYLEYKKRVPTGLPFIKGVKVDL

Structure (SMILES)	IC50 [nM]
COc1cc(Cl)ccc1OCCOc1cccc(-n2ccnc2C)c1 [US11834430, Compound 45]	76
N#Cc1ccc(OCCOc2ccc(F)c(-c3ccnn3C3CC3)c2)c(F)c1 [US11834430, Compound 88]	18
